Assay results: PubChem BioAssay AID1963447 (Molecular Pharmacology Branch, DTP, NCI, 2024)

Test system: 885512-296-R-J2-PDC complex spheroid growth, % test/control
Experiment: Anticancer human tumor 885512-296-R-J2-PDC patient-derived breast carcinoma cell line growth inhibition [Asc]
Details: for IC50: curve of first compound; for viability, T/C: stronger effect = lower value
Method in brief: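 Complex spheroids combining tumor cells with HUVEC endothelial cells and human MSCs, at 37 degrees C, 5% CO2; agents tested alone or combined, half-log dilutions from at or near clinical Cmax, or 10 microM if Cmax unknown.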

[1] = second compound 0.1 µM, first compound 0.00316 µM
[2] = second compound 0.1 µM, first compound 0.01 µM
[3] = second compound 0.1 µM, first compound 0.0316 µM
[4] = second compound 0.1 µM, first compound 0.1 µM
[5] = second compound 0.1 µM, first compound 0.316 µM
[6] = second compound 0.1 µM, first compound 1 µM
[7] = second compound 0.316 µM, first compound 0.00316 µM
[8] = second compound 0.316 µM, first compound 0.01 µM
[9] = second compound 0.316 µM, first compound 0.0316 µM
[10] = second compound 0.316 µM, first compound 0.1 µM
[11] = second compound 0.316 µM, first compound 0.316 µM
[12] = second compound 0.316 µM, first compound 1 µM
[13] = second compound 1 µM, first compound 0.00316 µM
[14] = second compound 1 µM, first compound 0.01 µM
[15] = second compound 1 µM, first compound 0.0316 µM
[16] = second compound 1 µM, first compound 0.1 µM
[17] = second compound 1 µM, first compound 0.316 µM
[18] = second compound 1 µM, first compound 1 µM
[19] = second compound 3.16 µM, first compound 0.00316 µM
[20] = second compound 3.16 µM, first compound 0.01 µM
[21] = second compound 3.16 µM, first compound 0.0316 µM
[22] = second compound 3.16 µM, first compound 0.1 µM
[23] = second compound 3.16 µM, first compound 0.316 µM
[24] = second compound 3.16 µM, first compound 1 µM
[25] = second compound 10 µM, first compound 0.00316 µM
[26] = second compound 10 µM, first compound 0.01 µM
[27] = second compound 10 µM, first compound 0.0316 µM
[28] = second compound 10 µM, first compound 0.1 µM
[29] = second compound 10 µM, first compound 0.316 µM
[30] = second compound 10 µM, first compound 1 µM
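Note: spheroids exposed to compounds for seven days.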
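Throughout, for viability, T/C: 100% = DMSO vehicle control wells.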

With `CCN1CCN(Cc2ccc(Nc3ncc(F)c(-c4cc(F)c5nc(C)n(C(C)C)c5c4)n3)nc2)CC1` + Cc1c(S(C)(=O)=O)c(-c2cc(F)cc(N3CCN(c4ccc(NS(=O)(=O)c5ccc(NC(CCN6CCC(C(=O)OCCCP(=O)(O)O)CC6)CSc6ccccc6)c(S(=O)(=O)C(F)(F)F)c5)cc4)CC3)c2)c(-c2ccc(Cl)cc2)n1C(C)C the IC50 (second compound 0.1 µM) was > 1000 nM, the IC50 (second compound 0.316 µM) was > 1000 nM and the IC50 (second compound 1 µM) was > 1000 nM. The IC50 (second compound 3.16 µM) was > 1000 nM, the IC50 (second compound 10 µM) was > 1000 nM and the viability, T/C [1] was 85.9%. The viability, T/C [2] was 104%, the viability, T/C [3] was 89.3% and the viability, T/C [4] was 71.7%. For the same compound, the viability, T/C [5] was 65.5%, the viability, T/C [6] was 61% and the viability, T/C [7] was 102%. It also gave a viability, T/C [8] of 89.9%, a viability, T/C [9] of 83.3% and a viability, T/C [10] of 68.3%. The viability, T/C [11] was 66.1%, the viability, T/C [12] was 65% and the viability, T/C [13] was 92.6%. The viability, T/C [14] was 91.5%, the viability, T/C [15] was 76% and the viability, T/C [16] was 76.3%. It also gave a viability, T/C [17] of 67.8%, a viability, T/C [18] of 69.1% and a viability, T/C [19] of 90.8%. It also gave a viability, T/C [20] of 83.5%, a viability, T/C [21] of 92.6% and a viability, T/C [22] of 89%. The viability, T/C [23] was 72.5%, the viability, T/C [24] was 61.9% and the viability, T/C [25] was 118%. For the same compound, the viability, T/C [26] was 116%, the viability, T/C [27] was 108% and the viability, T/C [28] was 126%. For the same compound, the viability, T/C [29] was 125% and the viability, T/C [30] was 113%.
Compound `COc1c(OCCCN2CCOCC2)ccc2c3n(c(=NC(=O)c4cnc(N)nc4)nc12)CCN3` + Cc1c(S(C)(=O)=O)c(-c2cc(F)cc(N3CCN(c4ccc(NS(=O)(=O)c5ccc(NC(CCN6CCC(C(=O)OCCCP(=O)(O)O)CC6)CSc6ccccc6)c(S(=O)(=O)C(F)(F)F)c5)cc4)CC3)c2)c(-c2ccc(Cl)cc2)n1C(C)C has an IC50 (second compound 0.1 µM) of 263 nM, an IC50 (second compound 0.316 µM) of 255 nM and an IC50 (second compound 1 µM) of 238 nM. It also gave an IC50 (second compound 3.16 µM) of 224 nM, an IC50 (second compound 10 µM) of 247 nM and a viability, T/C [1] of 95.2%. The viability, T/C [2] was 87.2%, the viability, T/C [3] was 95.9% and the viability, T/C [4] was 69.3%. It also gave a viability, T/C [5] of 47%, a viability, T/C [6] of 4.94% and a viability, T/C [7] of 91.2%. The viability, T/C [8] was 93.5%, the viability, T/C [9] was 79.3% and the viability, T/C [10] was 79%. The viability, T/C [11] was 43.2%, the viability, T/C [12] was 5.3% and the viability, T/C [13] was 98.8%. It also gave a viability, T/C [14] of 101%, a viability, T/C [15] of 84% and a viability, T/C [16] of 70.2%. The viability, T/C [17] was 43.9%, the viability, T/C [18] was 5.16% and the viability, T/C [19] was 92.4%. It also gave a viability, T/C [20] of 87.5%, a viability, T/C [21] of 77.5% and a viability, T/C [22] of 73.5%. It also gave a viability, T/C [23] of 40%, a viability, T/C [24] of 5.34% and a viability, T/C [25] of 117%. It also gave a viability, T/C [26] of 112%, a viability, T/C [27] of 96.2% and a viability, T/C [28] of 81%. For the same compound, the viability, T/C [29] was 40.7% and the viability, T/C [30] was 4.02%.
`NC(=O)C(=Cn1cnc(-c2cc(C(F)(F)F)cc(C(F)(F)F)c2)n1)c1cncnc1` + Cc1c(S(C)(=O)=O)c(-c2cc(F)cc(N3CCN(c4ccc(NS(=O)(=O)c5ccc(NC(CCN6CCC(C(=O)OCCCP(=O)(O)O)CC6)CSc6ccccc6)c(S(=O)(=O)C(F)(F)F)c5)cc4)CC3)c2)c(-c2ccc(Cl)cc2)n1C(C)C showed an IC50 (second compound 0.1 µM) of 40.1 nM, an IC50 (second compound 0.316 µM) of 38.9 nM and an IC50 (second compound 1 µM) of 39.1 nM. The IC50 (second compound 3.16 µM) was 41.3 nM, the IC50 (second compound 10 µM) was 46.1 nM and the viability, T/C (second compound 0.1 µM, first compound 0.000949 µM) was 92.8%. It also gave a viability, T/C (second compound 0.1 µM, first compound 0.003 µM) of 74.5%, a viability, T/C (second compound 0.1 µM, first compound 0.00949 µM) of 81.9% and a viability, T/C (second compound 0.1 µM, first compound 0.03 µM) of 65.5%. The viability, T/C (second compound 0.1 µM, first compound 0.0949 µM) was 4.49%, the viability, T/C (second compound 0.1 µM, first compound 0.3 µM) was 0.26% and the viability, T/C (second compound 0.316 µM, first compound 0.000949 µM) was 75.8%. For the same compound, the viability, T/C (second compound 0.316 µM, first compound 0.003 µM) was 102%, the viability, T/C (second compound 0.316 µM, first compound 0.00949 µM) was 83% and the viability, T/C (second compound 0.316 µM, first compound 0.03 µM) was 63.3%. For the same compound, the viability, T/C (second compound 0.316 µM, first compound 0.0949 µM) was 4.42%, the viability, T/C (second compound 0.316 µM, first compound 0.3 µM) was 3.46% and the viability, T/C (second compound 1 µM, first compound 0.000949 µM) was 68.8%. For the same compound, the viability, T/C (second compound 1 µM, first compound 0.003 µM) was 89.2%, the viability, T/C (second compound 1 µM, first compound 0.00949 µM) was 102% and the viability, T/C (second compound 1 µM, first compound 0.03 µM) was 64.4%. The viability, T/C (second compound 1 µM, first compound 0.0949 µM) was 3.77%, the viability, T/C (second compound 1 µM, first compound 0.3 µM) was 0.23% and the viability, T/C (second compound 3.16 µM, first compound 0.000949 µM) was 92.9%. It also gave a viability, T/C (second compound 3.16 µM, first compound 0.003 µM) of 88.1%, a viability, T/C (second compound 3.16 µM, first compound 0.00949 µM) of 105% and a viability, T/C (second compound 3.16 µM, first compound 0.03 µM) of 67.9%. It also gave a viability, T/C (second compound 3.16 µM, first compound 0.0949 µM) of 4.78%, a viability, T/C (second compound 3.16 µM, first compound 0.3 µM) of 0.2% and a viability, T/C (second compound 10 µM, first compound 0.000949 µM) of 117%. The viability, T/C (second compound 10 µM, first compound 0.003 µM) was 105%, the viability, T/C (second compound 10 µM, first compound 0.00949 µM) was 89.7% and the viability, T/C (second compound 10 µM, first compound 0.03 µM) was 78%. It also gave a viability, T/C (second compound 10 µM, first compound 0.0949 µM) of 2.71% and a viability, T/C (second compound 10 µM, first compound 0.3 µM) of 0.25%.
For `NC1CCC(NC2CC2c2ccccc2)CC1` (stereo not given) + Cc1c(S(C)(=O)=O)c(-c2cc(F)cc(N3CCN(c4ccc(NS(=O)(=O)c5ccc(NC(CCN6CCC(C(=O)OCCCP(=O)(O)O)CC6)CSc6ccccc6)c(S(=O)(=O)C(F)(F)F)c5)cc4)CC3)c2)c(-c2ccc(Cl)cc2)n1C(C)C, the IC50 (second compound 0.1 µM) was > 100 nM, the IC50 (second compound 0.316 µM) was > 100 nM and the IC50 (second compound 1 µM) was > 100 nM. For the same compound, the IC50 (second compound 3.16 µM) was > 100 nM, the IC50 (second compound 10 µM) was > 100 nM and the viability, T/C (second compound 0.1 µM, first compound 0.000316 µM) was 124%. The viability, T/C (second compound 0.1 µM, first compound 0.001 µM) was 127%, the viability, T/C [1] was 122% and the viability, T/C [2] was 123%. It also gave a viability, T/C [3] of 123%, a viability, T/C [4] of 113% and a viability, T/C (second compound 0.316 µM, first compound 0.000316 µM) of 121%. The viability, T/C (second compound 0.316 µM, first compound 0.001 µM) was 126%, the viability, T/C [7] was 118% and the viability, T/C [8] was 108%. The viability, T/C [9] was 127%, the viability, T/C [10] was 122% and the viability, T/C (second compound 1 µM, first compound 0.000316 µM) was 109%. For the same compound, the viability, T/C (second compound 1 µM, first compound 0.001 µM) was 115%, the viability, T/C [13] was 122% and the viability, T/C [14] was 116%. The viability, T/C [15] was 123%, the viability, T/C [16] was 121% and the viability, T/C (second compound 3.16 µM, first compound 0.000316 µM) was 112%. The viability, T/C (second compound 3.16 µM, first compound 0.001 µM) was 116%, the viability, T/C [19] was 116% and the viability, T/C [20] was 111%. It also gave a viability, T/C [21] of 113%, a viability, T/C [22] of 120% and a viability, T/C (second compound 10 µM, first compound 0.000316 µM) of 122%. The viability, T/C (second compound 10 µM, first compound 0.001 µM) was 104%, the viability, T/C [25] was 99.5% and the viability, T/C [26] was 121%. The viability, T/C [27] was 111% and the viability, T/C [28] was 118%.
